Assay results from paper PMC9694544, “Conteltinib (CT-707) in patients with advanced ALK-positive non-small cell lung cancer: a multicenter, open-label, first-in-human phase 1 study” (BMC Medicine, 2022).
Several values for one entry are separate records, joined by “and”; a condition that tells them apart may be missing. Equal values may be shown once.

Experiments:
[1] = target: ALK F1174L (Homo sapiens, UniProt Q9UM73, F1174L); test: ALK enzymatic IC50, F1174L; type: biochemical
Description: (§1) Supplement 12916_2022_2646_MOESM1_ESM.docx, table 1 | column: ALK Enzymatic IC50 (nM)

[2] = target: ALK L1196M (Homo sapiens, UniProt Q9UM73, L1196M); test: ALK enzymatic IC50, L1196M; type: biochemical
Description: as §1

[3] = target: ALK G1202R (Homo sapiens, UniProt Q9UM73, G1202R); test: ALK enzymatic IC50, G1202R; type: biochemical
Description: as §1

[4] = target: ALK G1269S (Homo sapiens, UniProt Q9UM73, G1269S); test: ALK enzymatic IC50, G1269S; type: biochemical
Description: as §1

[5] = target: ALK R1275Q (Homo sapiens, UniProt Q9UM73, R1275Q); test: ALK enzymatic IC50, R1275Q; type: biochemical
Description: as §1

[6] = test system: brain metastasis of ALK-positive NSCLC; test: Intracranial response in patients with measurable brain metastatic lesions; type: in vivo, human
[7] = test system: FAK; design: method as in PMID 27638856; conditions: less potent than the inhibition to ALK; cited from earlier work
[8] = test system: Pyk2; design: method as in PMID 27638856; conditions: less potent than the inhibition to ALK; cited from earlier work
[9] = test system: ALK-positive NSCLC; test: Phase 1 efficacy assessment (RECIST 1.1, investigator-assessed);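 further: tumours imaged by CT or MRI at baseline, after cycle 1, then every 8 weeks to cycle 29 and every 12 weeks until progression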
[10] = ALK TKI-naïve, 300 mg BID (n=6)
[11] = ALK TKI-naïve, 600 mg QD (n=12)
[12] = All patients, 300 mg BID (n=11)
[13] = Received crizotinib previously, 50 mg QD (n=1)
[14] = Received crizotinib previously, 200 mg QD (n=1)
[15] = Received crizotinib previously, 300 mg BID (n=5)
[16] = Received crizotinib previously, 300 mg QD (n=1)
[17] = Received crizotinib previously, 600 mg QD (n=6)
[18] = Received crizotinib previously, 800 mg QD (n=1)
[19] = waterfall plot, evaluable patients (n=60)

## COc1cc(N2CCC(N3CCN(C)CC3)CC2)ccc1Nc1nc2c(c(Nc3ccccc3S(=O)(=O)NC(C)C)n1)CCN2 [Conteltinib]
[1]
  IC50: 4.3 nM
[2]
  IC50: 3.8 nM
[3]
  IC50: 6.3 nM
[4]
  IC50: 8.4 nM
[5]
  IC50: 1.2 nM
[6]; 300 mg BID (n=1)
  Intracranial DCR (95% CI): 100.0% (2.5-100.0)
  Intracranial ORR (95% CI): 0.0% (0.0-97.5)
[6]; 450 mg QD (n=2)
  Intracranial DCR (95% CI): 100.0% (15.8-100.0)
  Intracranial ORR (95% CI): 50% (1.3-98.7)
[6]; 600 mg QD (n=3)
  Intracranial DCR (95% CI): 66.7% (9.4-99.2)
  Intracranial ORR (95% CI): 33.3% (0.8-90.6)
[7]
  FAK inhibition: inhibits
[8]
  Pyk2 inhibition: inhibits
[9]; 39 ALK TKI-naïve patients
  CR rate: 2.6%
  PR rate: 61.5%
  number of patients with objective response: 25 patients
[9]; 50/60 patients
  patients with tumor regression: 83.3%
[9]; ALK TKI-naïve, 50 mg QD (n=1)
  DCR (95% CI): 100.0% (2.5–100.0)
  ORR (95% CI): 100.0% (2.5–100.0)
[9]; ALK TKI-naïve, 100 mg QD (n=6)
  DoR, Median (95% CI): 11.1 (5.61–15.0) months
  PFS, Median (95% CI): 11.3 (2.75–15.9) months
[9]; ALK TKI-naïve, 200 mg QD (n=2)
  DoR, Median (95% CI): 5.51 (NE–NE) months
  ORR (95% CI): 50.0% (1.3–98.7)
  PFS, Median (95% CI): 5.89 (3.25–8.54) months
[9]; [10]
  DoR, Median (95% CI): 10.6 (1.80–10.6) months
  PFS, Median (95% CI): 17.8 (3.05–19.6) months
[9]; ALK TKI-naïve, 300 mg QD (n=2)
  DCR (95% CI): 100.0% (15.8–100.0)
  DoR, Median (95% CI): 17.4 (9.06–25.8) months
  ORR (95% CI): 100.0% (15.8–100.0)
  PFS, Median (95% CI): 19.5 (10.2–28.8) months
[9]; ALK TKI-naïve, 450 mg QD (n=8)
  DoR, Median (95% CI): NE (3.74–NE)
  PFS, Median (95% CI): NE (4.63–NE)
[9]; [11]
  DoR, Median (95% CI): 16.5 (1.80–32.8) months
  PFS, Median (95% CI): 19.3 (1.05–32.4) months
[9]; ALK TKI-naïve, 800 mg QD (n=2)
  DCR (95% CI): 100.0% (15.8–100.0)
  DoR, Median (95% CI): 28.0 (NE–NE) months
  ORR (95% CI): 50.0% (1.3–98.7)
  PFS, Median (95% CI): 19.8 (10.3–29.2) months
[9]; ALK TKI-naïve, Total (n=39)
  DoR, Median (95% CI): 15.0 (9.06–25.8) months
  PFS, Median (95% CI): 15.9 (9.26–23.3) months
[9]; All patients, 50 mg QD (n=2)
  DCR (95% CI): 50.0% (1.3–98.7)
  ORR (95% CI): 50.0% (1.3–98.7)
  PFS, Median (95% CI): NE (1.21–NE)
[9]; All patients, 100 mg QD (n=7)
  DoR, Median (95% CI): 11.1 (5.61–15.0) months
  PFS, Median (95% CI): 8.57 (0.95–15.9) months
[9]; All patients, 200 mg QD (n=3)
  DCR (95% CI): 33.3% (0.8–90.6)
  DoR, Median (95% CI): 5.51 (NE–NE) months
  ORR (95% CI): 33.3% (0.8–90.6)
  PFS, Median (95% CI): 3.25 (1.34–8.54) months
[9]; [12]
  DoR, Median (95% CI): 5.58 (1.80–10.6) months
  PFS, Median (95% CI): 7.68 (3.05–17.8) months
[9]; All patients, 300 mg QD (n=3)
  DCR (95% CI): 100.0% (29.2–100.0)
  DoR, Median (95% CI): 17.4 (9.06–25.8) months
  ORR (95% CI): 66.7% (9.4–99.2)
  PFS, Median (95% CI): 10.2 (4.92–28.8) months
[9]; All patients, 450 mg QD (n=13)
  DoR, Median (95% CI): NE (3.74–NE)
  PFS, Median (95% CI): 26.9 (4.63–NE) months
[9]; All patients, 600 mg QD (n=18)
  DoR, Median (95% CI): 15.6 (1.80–22.2) months
  PFS, Median (95% CI): 13.2 (4.69–23.0) months
[9]; All patients, 800 mg QD (n=3)
  DCR (95% CI): 100.0% (29.2–100.0)
  DoR, Median (95% CI): 17.3 (6.60–28.0) months
  ORR (95% CI): 66.7% (9.4–99.2)
  PFS, Median (95% CI): 10.3 (7.72–29.2) months
[9]; All patients, Total (n=60)
  DoR, Median (95% CI): 13.3 (6.60–22.2) months
  PFS, Median (95% CI): 9.26 (6.73–15.7) months
[9]; FAS, 60 patients
  patients achieving CR: 1.7%
  patients achieving PR: 51.7%
  patients attaining SD: 26.7%
  patients experiencing PD: 16.7%
[9]; [13]
  DCR (95% CI): 0.0% (0.0–97.5)
  ORR (95% CI): 0.0% (0.0–97.5)
  PFS, Median (95% CI): 1.21 (NE–NE) months
[9]; Received crizotinib previously, 100 mg QD (n=1)
  PFS, Median (95% CI): 0.95 months and 0.95 (NE–NE) months
[9]; [14]
  DCR (95% CI): 0.0% (0.0–97.5)
  ORR (95% CI): 0.0% (0.0–97.5)
  PFS, Median (95% CI): 1.34 (NE–NE) months
[9]; [15]
  DoR, Median (95% CI): 5.58 (4.63–7.39) months
  PFS, Median (95% CI): 7.09 (4.73–8.54) months
[9]; [16]
  DCR (95% CI): 100.0% (54.1–100.0)
  ORR (95% CI): 0.0% (0.0–97.5)
  PFS, Median (95% CI): 4.92 (NE–NE) months
[9]; Received crizotinib previously, 450 mg QD (n=5)
  PFS, Median (95% CI): 8.34 (3.02–26.9) months
[9]; [17]
  DoR, Median (95% CI): 13.3 (3.77–16.5) months
  PFS, Median (95% CI): 9.37 (4.69–17.7) months
[9]; [18]
  DCR (95% CI): 100.0% (2.5–100.0)
  DoR, Median (95% CI): 6.60 (NE–NE) months
  ORR (95% CI): 100.0% (2.5–100.0)
  PFS, Median (95% CI): 7.72 (NE–NE) months
[9]; across all patients (n=60)
  tumor size changes relative to baseline: −100 to 74%
[9]; [19]
  number of patients with CR: One
  number of patients with PD: 10 patients
  number of patients with PR: 31 patients
